{
  "source": "ChEMBL document CHEMBL1135718",
  "about": "“CoMFA and CoMSIA 3D QSAR and docking studies on conformationally-restrained cinnamoyl HIV-1 integrase inhibitors: exploration of a binding mode at the active site” (J Med Chem, 2002)",
  "target": "Human immunodeficiency virus type 1 integrase (Human immunodeficiency virus 1, UniProt Q7ZJM1)",
  "sequence (Q7ZJM1 whole entry)": "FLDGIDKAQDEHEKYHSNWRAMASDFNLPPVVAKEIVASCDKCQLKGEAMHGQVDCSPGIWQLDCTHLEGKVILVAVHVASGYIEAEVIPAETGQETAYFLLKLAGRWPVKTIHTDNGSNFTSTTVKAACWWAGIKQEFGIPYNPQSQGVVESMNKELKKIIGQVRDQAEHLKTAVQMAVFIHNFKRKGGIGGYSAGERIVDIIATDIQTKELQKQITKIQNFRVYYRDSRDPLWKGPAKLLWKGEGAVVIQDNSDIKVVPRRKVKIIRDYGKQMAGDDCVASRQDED",
  "test": "Inhibitory activity against HIV-1 Integrase (HIV-1-IN)",
  "data": [
    {"smiles": "O=C(/C=C/c1ccc(O)c(O)c1)CCc1ccccc1", "values": [
      {"measurement": "IC50", "value": 100, "unit": "µM"}
    ]},
    {"smiles": "COc1ccc(/C=C/C(=O)/C=C(O)/C=C/c2ccc(OC)c(OC)c2)cc1OC", "values": [
      {"measurement": "IC50", "value": 100, "unit": "µM"}
    ]},
    {"smiles": "O=C(/C=C/c1ccc(O)cc1)/C=C/c1ccc(O)cc1", "values": [
      {"measurement": "IC50", "value": 100, "unit": "µM"}
    ]},
    {"smiles": "O=C(/C=C(O)/C=C/c1ccccc1)/C=C/c1ccccc1", "values": [
      {"measurement": "IC50", "value": 100, "unit": "µM"}
    ]},
    {"smiles": "O=C(/C=C/c1cc(O)ccc1O)OCCc1ccccc1", "values": [
      {"measurement": "IC50", "value": 100, "unit": "µM"}
    ]},
    {"smiles": "COc1ccc(/C=C/C(=O)OCCc2ccccc2)cc1OC", "values": [
      {"measurement": "IC50", "value": 100, "unit": "µM"}
    ]},
    {"smiles": "COOC(=O)c1cc2ccc(O)c(O)c2cn1", "values": [
      {"measurement": "IC50", "value": 14.1, "unit": "µM"}
    ]},
    {"smiles": "COOC(=O)c1cc2cc(O)c(O)cc2cn1", "values": [
      {"measurement": "IC50", "value": 100, "unit": "µM"}
    ]},
    {"smiles": "O=C(NCc1ccccc1)c1cc2cc(O)c(O)cc2cn1", "values": [
      {"measurement": "IC50", "value": 100, "unit": "µM"}
    ]},
    {"smiles": "O=C(/C=C/c1ccc(F)c(F)c1)OCCc1ccccc1", "values": [
      {"measurement": "IC50", "value": 100, "unit": "µM"}
    ]},
    {"smiles": "COOC(=O)c1ccc2c(O)c(O)ccc2c1", "values": [
      {"measurement": "IC50", "value": 7.94, "unit": "µM"}
    ]},
    {"smiles": "COc1ccc(/C=C/C(=O)/C=C/c2ccc(OC)c(OC)c2)cc1OC", "values": [
      {"measurement": "IC50", "value": 100, "unit": "µM"}
    ]},
    {"smiles": "COc1cc(/C=C/C(=O)OCCc2ccccc2)ccc1O", "values": [
      {"measurement": "IC50", "value": 100, "unit": "µM"}
    ]},
    {"smiles": "O=C(/C=C/c1ccc(O)cc1)CC(=O)/C=C/c1ccc(O)cc1", "note": "[BISDEMETHOXYCURCUMIN]", "values": [
      {"measurement": "IC50", "value": 100, "unit": "µM"}
    ]},
    {"smiles": "COc1cc(/C=C2\\CCC/C(=C\\c3ccc(O)c(OC)c3)C2=O)ccc1O", "note": "[CYCLOVALONE]", "values": [
      {"measurement": "IC50", "value": 100, "unit": "µM"}
    ]},
    {"smiles": "CCOC(=O)/C=C/c1ccc(O)c(O)c1", "note": "[ETHYL CAFFEATE]", "values": [
      {"measurement": "IC50", "value": 100, "unit": "µM"}
    ]},
    {"smiles": "O=C(/C=C/c1ccc(O)cc1)c1ccc(O)cc1O", "note": "[ISOLIQUIRITIGENIN]", "values": [
      {"measurement": "IC50", "value": 100, "unit": "µM"}
    ]},
    {"smiles": "COC(=O)/C=C/c1ccc(O)c(O)c1", "note": "[METHYLCAFFEATE]", "values": [
      {"measurement": "IC50", "value": 100, "unit": "µM"}
    ]}
  ]
}
